Measured values taken from patent publication US20210386068A1, “COMPOSITIONS COMPRISING PYRIDINE CARBOXYLATE HERBICIDES AND VERY LONG CHAIN FATTY ACID (VLCFA) SYNTHESIS INHIBITOR HERBICIDES” (priority 2018, published 2021).

Columns and labels:
[1] = test system: Viola tricolor (wild pansy, VIOTR); assay: Greenhouse postemergence herbicidal effect, visual injury 20-22 d after spraying, wild pansy (VIOTR); type: in vivo; details: for % visual injury VIOTR Obs: Anilofos or Pretilachlor 300 g/ha
From the text: (§1) Seeds of the desired test plant species were planted in a 90:10% v/v (volume/volume) mixture of PRO-MIX® BX (Premier Tech Horticulture, Quakertown, Pa., USA) and PROFILE® GREENS GRADE™ (Profile Products LLC, Buffalo Grove, Ill., USA) planting mixture, which typically has a pH of 5.2 to 6.2 and an organic matter content of at least 50 percent, in plastic pots with a surface area of 103.2 square centimeters (cm^2). In some aspects, to ensure good germination and healthy plants, a fungicide treatment and/or other chemical or physical treatment was applied. The plants were grown for 7-36 days (d) in a greenhouse with an approximate 14-hour (h) photoperiod which was maintained at about 23° C. during the day and 22° C. during the night. Nutrients and water were added on a regular basis and supplemental lighting was provided with overhead metal halide 1000-Watt lamps as necessary. The plants were employed for testing when they reached the second or third true leaf stage.
(§2) Emulsifiable concentrates of each of each pyridine carboxylate herbicide (Compound A or Compound B) were prepared at 100 grams acid equivalent per liter (g ae/L). The emulsifiable concentrates also included a safener, cloquintocet-mexyl, at 120 grams active ingredient per liter (g ai/L). An aliquot of each emulsifiable concentrate was placed in a 25 mL glass vial and diluted with an aqueous mixture of 1.25% (v/v) ACTIROB® B esterified rapeseed oil (Bayer Crop Science, Research Triangle Park, N.C., USA) or MSO® Concentrate with LECI-TECH® methylated soybean oil (Loveland Products, Loveland, Colo., USA) to obtain concentrated stock solutions at the highest application rate for each herbicide, based upon a 12 milliliter (mL) application volume at a rate of 187 liters per hectare (L/ha). The concentrated stock solutions were further diluted with an aqueous mixture of 1.25% v/v ACTIROB® B or MSO® Concentrate with LECI-TECH® to obtain stock solutions at reduced application rates for each herbicide. Spray solutions of the herbicide combinations (Compound A or Compound B plus VLCFA synthesis inhibitor herbicide) were prepared by adding weighed amounts or aliquots of the VLCFA synthesis inhibitor herbicide to the stock solutions of Compound A or Compound B to form 12-mL spray solutions in two-way combinations.
(§3) The spray solutions were applied to the plant material with an overhead Mandel track sprayer equipped with 8002E nozzles calibrated to deliver 187 L/ha over an application area of 0.503 square meters (m^2) at a spray height of 18 inches ([…] (cm)) above the average plant canopy. Control plants were sprayed in the same manner with the solvent blank. All pyridine carboxylate herbicide (component a) application rates are given as “g ae/ha” and all VLCFA synthesis inhibitor herbicide (component b) application rates are given as “g ai/ha.”
(§4) The treated plants and control plants were placed in a greenhouse as described above and watered by sub-irrigation to prevent wash-off of the test compounds. After 20-22 d, the condition of the test plants as compared with that of the control plants was determined visually and scored on a scale of 0 to 100 percent where 0 corresponds to no injury and 100 corresponds to complete kill.

[2] = test system: Capsella bursa-pastoris (shepherd's purse, CAPBP); assay: Greenhouse postemergence herbicidal effect, visual injury 20-22 d after spraying, shepherd's purse (CAPBP); type: in vivo; details: Anilofos or Pretilachlor 300 g/ha
From the text: as §1, §2, §3, §4

[3] = test system: Viola arvensis (field pansy, VIOAR); assay: Greenhouse postemergence herbicidal effect, visual injury 20-22 d after spraying, field pansy (VIOAR); type: in vivo; details: Anilofos or Pretilachlor 300 g/ha
From the text: as §1, §2, §3, §4

[4] = test system: Matricaria inodora (scentless chamomile, MATIN); assay: Greenhouse postemergence herbicidal effect, visual injury 20-22 d after spraying, scentless chamomile (MATIN); type: in vivo; details: Anilofos or Pretilachlor 300 g/ha
From the text: as §1, §2, §3, §4

[5] = test system: Matricaria chamomilla (wild chamomile, MATCH); assay: Greenhouse postemergence herbicidal effect, visual injury 20-22 d after spraying, wild chamomile (MATCH); type: in vivo; details: Anilofos or Pretilachlor 300 g/ha
From the text: as §1, §2, §3, §4

[6] = test system: Brassica napus (winter rape, BRSNW); assay: Greenhouse postemergence herbicidal effect, visual injury 20-22 d after spraying, winter rape (BRSNW); type: in vivo; details: Anilofos or Pretilachlor 300 g/ha
From the text: as §1, §2, §3, §4

[7] = test system: Triticum aestivum (spring wheat, TRZAS); assay: Greenhouse postemergence crop phytotoxicity, visual injury 20-22 d after spraying, spring wheat (TRZAS); type: in vivo; details: Anilofos or Pretilachlor 300 g/ha
From the text: as §1, §2, §3, §4

[8] = test system: Cyanus segetum (cornflower, CENCY); assay: Greenhouse postemergence herbicidal effect, visual injury 20-22 d after spraying, cornflower (CENCY); type: in vivo; details: Anilofos or Pretilachlor 300 g/ha
From the text: as §1, §2, §3, §4

[9] = test system: Kochia scoparia (kochia, KCHSC); assay: Greenhouse postemergence herbicidal effect, visual injury 20-22 d after spraying, kochia (KCHSC); type: in vivo; details: Anilofos or Pretilachlor 300 g/ha
From the text: as §1, §2, §3, §4

winter wheat (TRZAW) = assay: Greenhouse postemergence crop phytotoxicity, visual injury 20-22 d after spraying, winter wheat (TRZAW); type: in vivo, Triticum aestivum; details: Anilofos or Pretilachlor 300 g/ha
From the text: as §1, §2, §3, §4

[10] = test system: Matricaria discoidea (pineapple weed, MATMT); assay: Greenhouse postemergence herbicidal effect, visual injury 20-22 d after spraying, pineapple weed (MATMT); type: in vivo; details: Anilofos or Pretilachlor 300 g/ha
From the text: as §1, §2, §3, §4

[11] = test system: Salsola kali (Russian thistle, SASKR); assay: Greenhouse postemergence herbicidal effect, visual injury 20-22 d after spraying, Russian thistle (SASKR); type: in vivo; details: Anilofos or Pretilachlor 300 g/ha
From the text: as §1, §2, §3, §4

winter barley (HORVW) = assay: Greenhouse postemergence crop phytotoxicity, visual injury 20-22 d after spraying, winter barley (HORVW); type: in vivo, Hordeum vulgare; details: Anilofos or Pretilachlor 300 g/ha
From the text: as §1, §2, §3, §4

[12] = test system: Veronica hederifolia (ivy-leaved speedwell, VERHE); assay: Greenhouse postemergence herbicidal effect, visual injury 20-22 d after spraying, ivy-leaved speedwell (VERHE); type: in vivo; details: Anilofos or Pretilachlor 300 g/ha
From the text: as §1, §2, §3, §4

[13] = test system: Cirsium arvense (Canadian thistle, CIRAR); assay: Greenhouse postemergence herbicidal effect, visual injury 20-22 d after spraying, Canadian thistle (CIRAR); type: in vivo; details: for % visual injury CIRAR Obs: Anilofos or Pretilachlor 300 g/ha
From the text: as §1, §2, §3, §4

[14] = test system: Papaver rhoeas (common poppy, PAPRH); assay: Greenhouse postemergence herbicidal effect, visual injury 20-22 d after spraying, common poppy (PAPRH); type: in vivo; details: Anilofos or Pretilachlor 300 g/ha
From the text: as §1, §2, §3, §4

[15] = test system: Anthemis arvensis (corn chamomile, ANTAR); assay: Greenhouse postemergence herbicidal effect, visual injury 20-22 d after spraying, corn chamomile (ANTAR); type: in vivo; details: Anilofos or Pretilachlor 300 g/ha
From the text: as §1, §2, §3, §4

[16] = test system: Sinapis arvensis (wild mustard, SINAR); assay: Greenhouse postemergence herbicidal effect, visual injury 20-22 d after spraying, wild mustard (SINAR); type: in vivo; details: Anilofos or Pretilachlor 300 g/ha
From the text: as §1, §2, §3, §4

[17] = test system: Stellaria media (common chickweed, STEME); assay: Greenhouse postemergence herbicidal effect, visual injury 20-22 d after spraying, common chickweed (STEME); type: in vivo; details: Anilofos or Pretilachlor 300 g/ha
From the text: as §1, §2, §3, §4

[18] = test system: Lamium purpureum (purple deadnettle, LAMPU); assay: Greenhouse postemergence herbicidal effect, visual injury 20-22 d after spraying, purple deadnettle (LAMPU); type: in vivo; details: Anilofos or Pretilachlor 300 g/ha
From the text: as §1, §2, §3, §4

[19] = test system: Hordeum vulgare (spring barley, HORVS); assay: Greenhouse postemergence crop phytotoxicity, visual injury 20-22 d after spraying, spring barley (HORVS); type: in vivo; details: Anilofos or Pretilachlor 300 g/ha
From the text: as §1, §2, §3, §4

[20] = test system: Veronica persica (Persian speedwell, VERPE); assay: Greenhouse postemergence herbicidal effect, visual injury 20-22 d after spraying, Persian speedwell (VERPE); type: in vivo; details: Anilofos or Pretilachlor 300 g/ha
From the text: as §1, §2, §3, §4

[21] = test system: Polygonum convolvulus (wild buckwheat, POLCO); assay: Greenhouse postemergence herbicidal effect, visual injury 20-22 d after spraying, wild buckwheat (POLCO); type: in vivo; details: Anilofos or Pretilachlor 300 g/ha
From the text: as §1, §2, §3, §4

[22] = test system: Amaranthus retroflexus (pigweed, AMARE); assay: Greenhouse postemergence herbicidal effect, visual injury 20-22 d after spraying, pigweed (AMARE); type: in vivo; details: Flufenacet 60 g/ha alone
From the text: as §1, §2, §3, §4

[23] = test system: Helianthus annuus (common sunflower, HELAN); assay: Greenhouse postemergence herbicidal effect, visual injury 20-22 d after spraying, common sunflower (HELAN); type: in vivo; details: Flufenacet 60 g/ha alone
From the text: as §1
(§5) Emulsifiable concentrates of each of each pyridine carboxylate herbicide (Compound A or Compound B) were prepared at 100 grams acid equivalent per liter (g ae/L). The emulsifiable concentrates also included a safener, cloquintocet-mexyl, at 120 grams active ingredient per liter (g ai/L). […]
as §4

[24] = test system: Abutilon theophrasti (velvetleaf, ABUTH); assay: Greenhouse postemergence herbicidal effect, visual injury 20-22 d after spraying, velvetleaf (ABUTH); type: in vivo; details: Flufenacet 60 g/ha alone
From the text: as §1, §5, §4

[25] = test system: Ipomoea hederacea (ivyleaf morningglory, IPOHE); assay: Greenhouse postemergence herbicidal effect, visual injury 20-22 d after spraying, ivyleaf morningglory (IPOHE); type: in vivo; details: Flufenacet 60 g/ha alone
From the text: as §1, §5, §4

Compound | % visual injury VIOTR Obs [1] [%] | % visual injury CAPBP Obs [2] [%] | % visual injury VIOAR Obs [3] [%] | % visual injury MATIN Obs [4] [%] | % visual injury MATCH Obs [5] [%] | % visual injury BRSNW Obs [6] [%] | % visual injury TRZAS Obs [7] [%] | % visual injury CENCY Obs [8] [%] | % visual injury KCHSC Obs [9] [%] | % visual injury TRZAW Obs (winter wheat (TRZAW)) [%] | % visual injury MATMT Obs [10] [%] | % visual injury SASKR Obs [11] [%] | % visual injury HORVW Obs (winter barley (HORVW)) [%] | % visual injury VERHE Obs [12] [%] | % visual injury CIRAR Obs [13] [%] | % visual injury PAPRH Obs [14] [%] | % visual injury ANTAR Obs [15] [%] | % visual injury SINAR Obs [16] [%] | % visual injury STEME Obs [17] [%] | % visual injury LAMPU Obs [18] [%] | further results
CCCOCCN(C(=O)CCl)c1c(CC)cccc1CC [Pretilachlor, 2-chloro-N-(2,6-diethylphenyl)-N-(2-propoxyethyl)acetamide] | 5 | 0 | 5 | 0 | 20 | 5 | 0 | 10 | 5 | 0 | 13 | 25 | 0 | 5 | 5 | 10 | 10 | 5 | 0 | 5 | % visual injury HORVS Obs [19]: 0%; % visual injury VERVE Obs [20]: 10%; % visual injury POLCO Obs [21]: 8%
COP(=S)(OC)SCC(=O)N(c1ccc(Cl)cc1)C(C)C [Anilofos, S-[2-[(4-chlorophenyl)(1-methylethyl)amino]-2-oxoethyl] O,O-dimethyl phosphorodithioate] | 0 | 0 | 0 | 0 | 0 | 5 | 0 | 10 | 0 | 0 | 0 | 0 | 0 | 0 | 0 | 25 | 5 | 0 | 0 | 10 | % visual injury HORVS Obs [19]: 0%; % visual injury VERPE Obs [20]: 5%; % visual injury POLCO Obs [21]: 0%
CC(C)N(C(=O)COc1nnc(C(F)(F)F)s1)c1ccc(F)cc1 [Flufenacet, N-(4-fluorophenyl)-N-(1-methylethyl)-2-[[5-(trifluoromethyl)-1,3,4-thiadiazol-2-yl]oxy]acetamide] |  |  |  |  |  |  |  |  |  |  |  |  |  |  |  |  |  |  |  |  | % visual injury Obs ([1]; VIOTR, Flufenacet 60 g/ha alone): 0%; % visual injury Obs [22]: 5%; % visual injury Obs [23]: 15%; % visual injury Obs [24]: 3%; % visual injury Obs ([13]; CIRAR, Flufenacet 60 g/ha alone): 8%; % visual injury Obs [25]: 5%
